The source of these data is patent publication US20060122387A1, “Derivatives of chromen-2-one as inhibitors of vegf production in mammalian cells” (CTI Europe S.r.l., priority 2002, published 2006).

The assay has as its system VEGF promoter (luciferase reporter) in Hep3B cells. Put plainly: Cell-based assay of VEGF gene transcription (VEGF-Luciferase assay). The note with it: Hep3B cells stably expressing VEGF-luciferase construct; 100 μM desferoxamine, 18 hours; read-out: IC50 (concentration of compound required to cause a 50% reduction of the luciferase signal). On the procedure: Cell-Based Assay of VEGF Gene Transcription (VEGF-Luciferase Assay).
The activity of compounds is determined by a cell-based reporter assay which uses the hepatoma 3B (Hep3B) cell line.
This assay involves the use of a luciferase reporter gene under the direct control of the VEGF promoter. Induction of the hypoxic response using desferoxamine leads to the transcription of luciferase through activation of the VEGF promoter, which in turn leads to an increase in luciferse activity, which can be measured using most of commercially available luciferase assay kits. Molecules which inhibit the activation of the VEGF promoter can thus be detected.
This assay can be run using a Hep3B cell line which stably expresses the VEGF-luciferase construct.
Hep3B cells (ATCC Ref. No. HB-8064) are plated in 6-well plates at 2.5×10^5 cells/well in 2 mL DMEM/10% FCS and are transfected the following day using Fugene 6 (Roche Biochemicals®). Transfection mixtures per well contain 6 μL Fugene 6 transfection reagent, 1 μg of pxp2-VEGF-luciferase reporter (rat VEGF promoter, NCBI GenBank accession no. U22373, Levy et al., 1995), plus pcDNA3.1(+) Neomycin resistance vector (INVITROGEN). […]
Luciferase activity is measured using the Bright Glo Luciferase Assay System (Promega®, see also technical Manual, Part #TM052, Instructions for Use of Products E2620 and E2650, revised 10/00). […]

Each structure is given as a SMILES string.

Regarding `CCN(CC)c1ccc2cc(-c3nc(-c4ccccc4)cs3)c(=O)oc2c1` [Example 8], the IC50 is less than 10 µM.
